According to US20260130850A1, “TRANSDERMAL DELIVERY FORMULATIONS AND METHODS FOR THE MANUFACTURE THEREOF” (LIFEACTIVE, INC., priority 2023, published 2026):

Columns and labels:
[1] = in H2O at ~15-20° C.; Table 2 weak organic acids; cited from earlier work
[2] = Acidic dissociation constants (pKa) of strong and weak organic acids; type: physicochemical; settings: water; in H2O at ~15-20° C.; Table 2 weak organic acids; read-out: Median pKa

Row | pKa [2] | Molecule | pKa3 [1] | pKa1 [1]
1 | – | Citric Acid | 6.40 | –
2 | 5.6 | O=c1[nH]c(=O)c2[nH]c(=O)[nH]c2[nH]1 [Uric Acid] | – | 5.6
